Laboratory results published in patent publication US7410663B2, “Oil or fat composition” (Kao Corporation, priority 2002, dated 2008).

Tests used:
PPARγ = biological target: T1, PPARγ (Homo sapiens, UniProt P37231); assay: Test on PPARγ activation (GAL4-PPARγ-LBD luciferase reporter in IEC-6 cells); format: cell-based; conditions: control set at 100, test substance 500 μM, 24 hours
T1 construct: expressed in transfected cells; host or cells: IEC-6 small intestine epithelial cell line
T1 sequence (P37231 238-503 limits assumed): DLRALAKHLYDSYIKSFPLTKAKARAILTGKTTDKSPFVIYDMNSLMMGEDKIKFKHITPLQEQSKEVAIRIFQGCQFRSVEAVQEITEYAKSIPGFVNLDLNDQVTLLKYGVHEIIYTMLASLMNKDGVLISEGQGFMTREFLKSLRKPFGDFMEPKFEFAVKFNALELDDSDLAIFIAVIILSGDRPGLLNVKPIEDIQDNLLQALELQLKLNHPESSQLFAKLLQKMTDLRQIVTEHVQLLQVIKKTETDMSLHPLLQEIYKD
Description: The small intestine epithelial cell line IEC-6 was inoculated on a 12 well plate and cultured in DMEM (5% FCS) for 24 hours. A plasmid (pGAL4-PPARγ-LBD) expressing the chimeric molecules of a GAL4-DNA binding domain (DBD) and a PPARγ ligand binding domain (LBD) and a reporter plasmid (pREP) containing a GAL4 binding sequence upstream of a firefly luciferase gene were introduced simultaneously by using a transfection reagent (“QIAGEN”; Superfect transfection reagent), each in an amount of 0.5 μg/well. In order to monitor the transfection efficiency, a renilla luciferase gene was incorporated in the pGAL4-PPARγ-LBD at the same time. The culture broth was then replaced with a DMEM (+250 μM BSA) medium containing a test substance (500 μM), followed by incubation for further 24 hours. After washing with PBS, the cells were lysed using dual luciferase assay system (product of Promega Corporation). To the resulting lysate was added a substrate solution containing luciferin, and firefly and renilla luciferase activities were measured by a luminometer. In the above-described manner, the PPARγ activating capacity was evaluated by measuring the transcriptional activity (luciferase activity) of the PPARγ-dependent gene. It is to be noted that the PPARγ-dependent gene transcriptional activity (luciferase activity) was defined as described below. […]

[1] = Evaluation of gelling properties; format: physicochemical; parameters: key: A: The mixture lacks fluidity and is gelled.; B: The mixture has low fluidity and is gelled slightly.; C: The mixture has fluidity and is partially gelled.; D: The mixture has fluidity and is not gelled at all; conditions: 70:30 (weight/weight) mixture of oil or fat composition and water, visually observed
Description: Gelling properties of a 70:30 (weight/weight) mixture of each oil or fat composition and water were visually observed and evaluated based on the below-described criteria. The results are shown in Table 1. • A: The mixture lacks fluidity and is gelled. • B: The mixture has low fluidity and is gelled slightly. • C: The mixture has fluidity and is partially gelled. • D: The mixture has fluidity and is not gelled at all.

[2] = Evaluation of rancid odor (organoleptic); format: physicochemical; parameters: key: A: The sample is almost free from a rancid odor and the odor does not cause discomfort.; B: The sample emits a little rancid odor, but the odor causes little discomfort.; C: The sample emits a rancid odor and the odor causes discomfort.; D: The sample emits a severe rancid odor and the odor causes extreme discomfort; conditions: oil or fat composition:water=70:30, room temperature for 1 week, smelled
Description: Each sample (each oil or fat composition:water=70:30) prepared in Example 3 was allowed to stand at room temperature for 1 week. The sample was smelled and organoleptic evaluation of rancid odor was performed based on the below-described criteria.

Row | SMILES | PPARγ (PPARγ-dependent transcriptional activity, luciferase, relative to control) (PPARγ) | Gelling properties [1] | Rancid odor [2]
1 | CC/C=C\C/C=C\C/C=C\C/C=C\C/C=C\C/C=C\CCC(=O)O [Oil or Fat Composition 8, Docosahexaenoic acid] | 508 | D | D
2 | CC/C=C\C/C=C\C/C=C\C/C=C\C/C=C\CCCC(=O)O [Oil or Fat Composition 7, Eicosapentaenoic acid] | 480 | D | D
